In patent US20240067617A1 (Albireo AB, priority 2022, published 2024):

What was measured:
hLBAT = target: T1, hLBAT (Homo sapiens, UniProt Q14973); assay: LBAT (h/m) assay: 3H-taurocholic acid uptake in human LBAT-overexpressing cells; type: cell-based; details: 0.3 μM 3H-taurocholic acid + 7.5 μM cold taurocholic acid, 20 minutes at 37° C.
T1 construct: expressed in transfected cells; kept under Geneticin selection
T1 sequence (Q14973 1-349): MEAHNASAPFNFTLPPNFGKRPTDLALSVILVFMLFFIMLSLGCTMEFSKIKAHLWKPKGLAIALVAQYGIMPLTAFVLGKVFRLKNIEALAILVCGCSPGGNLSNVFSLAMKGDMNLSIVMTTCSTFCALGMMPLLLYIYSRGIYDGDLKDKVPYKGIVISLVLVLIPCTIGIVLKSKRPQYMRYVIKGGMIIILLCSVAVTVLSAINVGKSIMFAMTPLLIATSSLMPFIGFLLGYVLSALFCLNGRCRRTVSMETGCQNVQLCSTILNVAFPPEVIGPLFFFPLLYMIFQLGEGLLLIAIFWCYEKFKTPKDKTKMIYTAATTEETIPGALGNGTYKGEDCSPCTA
Summary of the method: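 Human or mouse LBAT-overexpressing cells given 10-point inhibitor series with 0.3 μM 3H-taurocholic acid plus cold taurocholic acid (7.5 μM human, 25 μM mouse), 0.2% DMSO, for 20 min at 37° C. Stopped on ice, washed with 1 mM unlabelled taurocholic acid; uptake measured by scintillation counting.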

hIBAT = target: T2, hIBAT (Homo sapiens, UniProt Q12908); assay: IBAT (h/m) assay: 3H-taurocholic acid uptake in human IBAT-overexpressing cells; type: cell-based; details: 0.25 μM 3H-taurocholic acid + 5 μM cold taurocholic acid, 20 minutes at 37° C., highest test concentration 10 μM
T2 construct: expressed in transfected cells; kept under Puromycin selection
T2 sequence (Q12908 1-348): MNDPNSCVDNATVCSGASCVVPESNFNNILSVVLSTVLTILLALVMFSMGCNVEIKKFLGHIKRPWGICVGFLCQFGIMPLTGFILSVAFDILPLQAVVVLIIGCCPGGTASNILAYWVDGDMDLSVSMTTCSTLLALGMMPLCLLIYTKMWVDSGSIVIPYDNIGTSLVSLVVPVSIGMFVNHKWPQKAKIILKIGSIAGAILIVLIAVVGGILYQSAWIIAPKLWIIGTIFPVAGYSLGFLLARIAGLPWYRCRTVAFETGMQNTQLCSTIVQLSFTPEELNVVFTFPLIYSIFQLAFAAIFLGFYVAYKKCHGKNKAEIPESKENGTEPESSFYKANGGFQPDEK
Summary of the method: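 Human or mouse IBAT-overexpressing cells cultured 48 h, then exposed for 20 min at 37 °C to compounds (top 10 μM, 3-fold, 10 points; 0.2% DMSO) with 0.25 μM 3H-taurocholic acid plus 5 μM cold taurocholic acid. Uptake stopped on ice, cells washed with cold 1 mM taurocholic acid, radioactivity counted by scintillation.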

CCCC[C@@H]1CN(c2ccccc2)c2cc(N(C)C)c(CSCC(=O)O)cc2S(=O)(=O)N1 [Example 49, (R)-2-(((3-butyl-7-(dimethylamino)-1,1-dioxido-5-phenyl-2,3,4,5-tetrahydro-1,2,5-benzothiadiazepin-8-yl)methyl)thio)acetic acid]
IC50 (hLBAT): 248 nM | IC50 (hIBAT): 2320 nM

CCCC[C@@H]1CN(c2ccccc2)c2cc(SC)c(CSCC(=O)O)cc2S(=O)(=O)N1 [Example 50, (R)-2-(((3-butyl-7-(methylthio)-1,1-dioxido-5-phenyl-2,3,4,5-tetrahydro-1,2,5-benzothiadiazepin-8-yl)methyl)thio)acetic acid]
IC50 (hLBAT): 50 nM | IC50 (hIBAT): 558 nM

CCCC[C@@H]1CN(c2ccccc2)c2cc(OC)c(CSCC(=O)O)cc2S(=O)(=O)N1 [Example 51, (R)-2-(((3-butyl-7-methoxy-1,1-dioxido-5-phenyl-2,3,4,5-tetrahydro-1,2,5-benzothiadiazepin-8-yl)methyl)thio)acetic acid]
IC50 (hLBAT): 142 nM | IC50 (hIBAT): 2610 nM

CCCCC1(C)CN(c2ccccc2)c2cc(N(C)C)c(CSCC(=O)O)cc2S(=O)(=O)N1 (stereo not drawn) [Example 52, 2-(((3-Butyl-7-(dimethylamino)-3-methyl-1,1-dioxido-5-phenyl-2,3,4,5-tetrahydro-1,2,5-benzothiadiazepin-8-yl)methyl)thio)acetic acid]
IC50 (hLBAT): > 1000 nM | IC50 (hIBAT): 7.4 nM

CCCCC1(C)CN(c2ccccc2)c2cc(OC)c(CSCC(=O)O)cc2S(=O)(=O)N1 (stereo not drawn) [Example 53, 2-(((3-butyl-7-methoxy-3-methyl-1,1-dioxido-5-phenyl-2,3,4,5-tetrahydro-1,2,5-benzothiadiazepin-8-yl)methyl)thio)acetic acid]
IC50 (hLBAT): > 1000 nM | IC50 (hIBAT): 14 nM

CCCCC1(C)CN(c2ccccc2)c2cc(SC)c(CSCC(=O)O)cc2S(=O)(=O)N1 (stereo not drawn) [Example 54, 2-(((3-Butyl-3-methyl-7-(methylthio)-1,1-dioxido-5-phenyl-2,3,4,5-tetrahydro-1,2,5-benzothiadiazepin-8-yl)methyl)thio)acetic acid]
IC50 (hLBAT): > 1000 nM | IC50 (hIBAT): 0.1 nM
